The text below walks through data of US20250295656A1, “COMBINATION OF LURBINECTEDIN AND IMMUNE CHECKPOINT INHIBITORS” (priority 2020, published 2025).

Type in all cases: cell-based, human
The subject of experiment [1] is U2OS cells stably expressing HMGB1-GFP. The experiment can be described thus: HMGB1 release (loss of nuclear HMGB1-GFP fluorescence). The conditions noted are these: lurbinectedin 1 nM to 1 μM, MTX 1 and 3 μM, medium to late time points. How it is done:
(§1) (a) Human osteosarcoma U2OS (a), human breast cancer HCC70 (b) human colon cancer HT29 cells (c) and murine methylcholantrene-induced fibrosarcoma MCA205 cells (d) were treated with lurbinectedin (Lurbi, 1 nM, 10 nM, 100 nM and 1 μM) for the indicated times. Subsequently, the cells were stained with 1 μM Hoechst 33342 and 1 μM propidium iodide and assessed for the loss of viability by automated image acquisition. Images were segmented, cellular debris was excluded and the number of cells with normal nuclear morphology was enumerated. Cells stably expressing CALR-GFP were treated as above. Following the cells were fixed with 3.7% of PFA, stained with 1 μM Hoechst 33342 and assessed by automated image acquisition. Images were segmented, cellular debris was excluded and CALR-GFP granularity (a surrogate marker of CALR exposure) was evaluated in the cytoplasmic region of cells with normal nuclear morphology. Wild type cells were treated as above and then assessed for cytoplasmic quinacrine granularity (after staining with the ATP-sensitive dye quinacrine together with Hoechst 33342) by automated image acquisition, segmentation and analysis. Cells stably expressing HMGB1-GFP were treated as above and then assessed for nuclear HMGB1-GFP fluorescence intensity. The cells were fixed and stained with Hoechst 33342 and images were acquired, segmented and analyzed. […]

Experiment [2] has as its system U2OS biosensor cells expressing GFP under the MX1 promoter. As to the kind of experiment: Type I IFN response (MX1-GFP biosensor cells treated with supernatant). The settings on record: supernatant of treated U2OS cells after 48 hours fresh media; biosensor cells 48 hours; throughout all time points. How it is done:
In a systematic screening campaign, the capacity of lurbinectedin to induce immunogenic cell death in cancer cells was assessed in human osteosarcoma U2OS cells stably expressing fluorescent biosensors for the detection of CALR-relocation (as a surrogate marker for CALR surface exposure), HMGB1 release and Type I IFN responses together with U2OS WT cells stained with the ATP-sensitive dye quinacrine. […] The induction of cell death was evaluated based on changes in the nuclear morphology visualized by means of the DNA intercalating dye Hoechst 33342.

Experiment [3] deals with U2OS cells stably expressing CALR-GFP. The experiment can be described thus: CALR-GFP granularity (surrogate marker of CALR exposure). The settings on record: lurbinectedin 1 nM to 1 μM, MTX 1 and 3 μM, 4-32 hours, vs untreated controls. As to the method:
as §1

For experiment [4], the system named is U2OS WT cells. The experiment can be described thus: Cytoplasmic quinacrine granularity (intracellular ATP, indicator of ATP release). The conditions noted are these: lurbinectedin 1 nM to 1 μM, MTX 1 and 3 μM, dose-dependent, decreased over time, vs untreated controls. As to the method:
as §1

On to `O=C1c2c(O)ccc(O)c2C(=O)c2c(NCCNCCO)ccc(NCCNCCO)c21` [MTX, mitoxantrone], for which the “nuclear GFP signal (HMGB1-GFP)” value in experiment [1] is “significant decrease”. In experiment [2], the “de novo GFP signal intensity (type 1 IFN response)” value is “significant increase”. The CALR-granularity entry in experiment [3] is “time- and dose-dependent increase”. For the same molecule, the “ATP signal (cytoplasmic quinacrine granularity)” value in experiment [4] is on record as “significant decrease”.
